Assay results from patent US5225528A, “Cyclic hexapeptide oxytocin antagonists” (priority 1990, dated 1993).
Read-outs that look alike come from different tables or passages of the source. Numbered stars: 1 amine (or outer) side, 2 acyl side, 3 side chain; on linkers, the order of the positions; unused ones are H or OH. Square brackets hold non-standard residues; d marks the D form. Peptide text beside a SMILES is read from it. * marks the point of attachment. ξ: configuration not given here. X2 = O=C(OCc1ccccc1)N1CCN([*:1])[C@H](C(=O)[*:2])C1; d1Nal = N[C@H](Cc1cccc2ccccc12)C(=O)O; d2Nal = N[C@H](Cc1ccc2ccccc2c1)C(=O)O; dHis(π-Me) = Cn1cncc1C[C@@H](N)C(=O)O; X12 = O=C([C@@H]1CCCNN1[*:1])[*:2]; Pip(4-aza) = O=C(O)[C@@H]1CNCCN1; X6 = O=C([C@H]1CCCNN1[*:1])[*:2]; dNMeF = CN[C@H](Cc1ccccc1)C(=O)O; dPip(4-aza) = O=C(O)[C@H]1CNCCN1; ξmTyr = NC(Cc1cccc(O)c1)C(=O)O; Pip = O=C(O)[C@@H]1CCCCN1; dPip = O=C(O)[C@H]1CCCCN1; dNMeA = CN[C@H](C)C(=O)O; Boc = CC(C)(C)OC(=O)*

How the values were obtained:
AVP-V2 sites = target: T1, AVP-V2 sites (Rattus norvegicus, UniProt Q00788); test: [^3 H]AVP binding to crude membrane preparation of male rat kidney medulla (AVP-V2 sites)
T1 construct: male rat liver (AVP-V1 sites) or kidney medulla (AVP-V2 sites); from tissue; host or cells: male rat kidney medulla, crude membranes
T1 sequence (Q00788 whole entry): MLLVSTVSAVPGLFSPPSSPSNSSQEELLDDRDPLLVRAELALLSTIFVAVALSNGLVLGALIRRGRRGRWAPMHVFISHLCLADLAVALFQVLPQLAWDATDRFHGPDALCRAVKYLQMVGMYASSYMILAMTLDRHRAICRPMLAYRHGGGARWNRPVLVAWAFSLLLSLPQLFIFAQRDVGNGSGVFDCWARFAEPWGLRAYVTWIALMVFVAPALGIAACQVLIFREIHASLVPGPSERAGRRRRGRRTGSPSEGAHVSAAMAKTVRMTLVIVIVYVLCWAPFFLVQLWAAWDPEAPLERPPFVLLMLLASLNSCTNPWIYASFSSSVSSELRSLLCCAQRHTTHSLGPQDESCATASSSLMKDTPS
Protocol: (§1) Nonspecific binding (5-10% of the total binding) was determined using 10 μM unlabeled AVP, and the binding reaction was terminated by filtration as described above for the [^3 H]OT binding assay.

uterine OT receptors = target: T2, uterine OT receptors (Rattus norvegicus, UniProt P70536); test: [^3 H]OT binding to uterine OT receptors, crude membrane preparation of uteri from DES-treated rats; conditions: for inhibition at 1 µM: 1 h, read-out: [^3 H]OT: percent inhibition of radioligand at the given concentration
T2 construct: from tissue; host or cells: uterus of DES-treated rats, crude membranes
T2 sequence (P70536 1-388): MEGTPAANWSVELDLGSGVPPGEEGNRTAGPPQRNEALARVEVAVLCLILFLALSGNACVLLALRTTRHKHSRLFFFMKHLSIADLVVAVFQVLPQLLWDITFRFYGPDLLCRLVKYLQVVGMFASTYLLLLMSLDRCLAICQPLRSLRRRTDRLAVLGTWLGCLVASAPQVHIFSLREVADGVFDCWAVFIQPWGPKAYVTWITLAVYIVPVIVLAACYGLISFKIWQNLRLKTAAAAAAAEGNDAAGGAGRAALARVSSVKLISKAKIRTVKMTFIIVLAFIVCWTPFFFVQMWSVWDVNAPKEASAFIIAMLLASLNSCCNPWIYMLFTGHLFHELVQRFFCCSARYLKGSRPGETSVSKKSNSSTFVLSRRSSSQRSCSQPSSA
Protocol: Competition studies were conducted at equilibrium (60 minutes; 22° C.) using 1 nM [^3 H]OT in the following assay buffer: 50 mM Tris-HCl, 5 mM MgCl2, and 0.1% BSA, pH 7.4.

AVP-V1 sites = target: T3, AVP-V1 sites (Rattus norvegicus, UniProt P30560); test: [^3 H]AVP binding to crude membrane preparation of male rat liver (AVP-V1 sites)
T3 construct: crude membrane preparation of male rat liver (AVP-V1 sites); from tissue; host or cells: male rat liver, crude membranes
T3 sequence (P30560 whole entry): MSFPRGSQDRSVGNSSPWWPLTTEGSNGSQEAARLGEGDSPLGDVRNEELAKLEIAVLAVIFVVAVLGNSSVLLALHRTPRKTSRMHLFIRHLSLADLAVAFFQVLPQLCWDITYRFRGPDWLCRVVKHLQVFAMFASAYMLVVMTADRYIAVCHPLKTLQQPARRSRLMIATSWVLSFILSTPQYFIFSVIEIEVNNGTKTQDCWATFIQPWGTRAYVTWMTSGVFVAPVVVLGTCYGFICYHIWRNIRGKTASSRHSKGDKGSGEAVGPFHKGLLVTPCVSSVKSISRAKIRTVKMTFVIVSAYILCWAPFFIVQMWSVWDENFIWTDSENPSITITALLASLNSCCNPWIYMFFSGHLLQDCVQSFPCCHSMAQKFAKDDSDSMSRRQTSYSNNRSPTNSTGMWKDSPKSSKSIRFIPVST
Protocol: as §1

[1] = rat uterus membranes, 1 nM [^3 H]OT, read-out: Receptor Binding Results IC50 (nM) [^3 H]OT
[2] = Receptor Binding Results IC50 (nM) [^3 H]-AVP-V1
[3] = rat kidney medulla membranes, 2 nM [^3 H]AVP, read-out: Receptor Binding Results IC50 (nM) [^3 H]-AVP-V2
[4] = read-out: Receptor Binding Results IC50 (nM) [^3 H]-AVP-V1
[5] = read-out: Receptor Binding Results IC50 (nM) [^3 H]-AVP-V2

Row | Compound | IC50 (uterine OT receptors; [1]) [nM] | IC50 (AVP-V1 sites; [2]) [nM] | IC50 (AVP-V2 sites; [3]) [nM] | further results
1 | CC[C@H](C)[C@@H]1NC(=O)C(Cc2cn(C)c3ccccc23)NC(=O)[C@@H]2CCCN2C(=O)[C@@H](Cc2c[nH]cn2)NC(=O)[C@@H]2CCCCN2C(=O)[C@H]2CCCCN2C1=O (single isomer, unassigned) [153 lower Rf] |  |  |  | inhibition at 10 µM (AVP-V2 sites; 0.5 h, @ 10,000 (nM), read-out: [^3 H]-AVP-V2: percent inhibition of radioligand at the given concentration): 73%
2 | CC[C@H](C)[C@@H]1NC(=O)C(Cc2c[nH]c3ccc(F)cc23)NC(=O)[C@@H]2CCCN2C(=O)[C@@H](Cc2c[nH]cn2)NC(=O)[C@@H]2CCCCN2C(=O)[C@H]2CCCCN2C1=O (single isomer, unassigned) [157 higher Rf] | 590 | 10000 | > 10000 | 
3 | CC[C@H](C)[C@@H]1NC(=O)C(Cc2c[nH]c3ccc(F)cc23)NC(=O)[C@@H]2CCCN2C(=O)[C@@H](Cc2c[nH]cn2)NC(=O)[C@@H]2CCCCN2C(=O)[C@H]2CCCCN2C1=O (single isomer, unassigned) [157 lower Rf] |  |  |  | inhibition at 1 µM (uterine OT receptors; @ 1,000 (nM)): 6%; IC50 (AVP-V1 sites; [4]): 13000 nM; IC50 (AVP-V2 sites; [5]): 26000 nM
4 | CC[C@H](C)[C@@H]1NC(=O)[C@@H](Cc2ccccc2)NC(=O)[C@@H]2CCCN2C(=O)C(Cc2cccnc2)NC(=O)[C@@H]2CCCCN2C(=O)[C@H]2CCCCN2C1=O (single isomer, unassigned) [Example 10 (isomer 1), Cyclo[D-Phe-L-Ile-D-Pip-L-Pip-D,L-3-PyrAla-L-Pro]] | 1000 | > 10000 | > 10000 | 
5 | CC[C@H](C)[C@@H]1NC(=O)[C@@H](Cc2ccccc2)NC(=O)[C@@H]2CCCN2C(=O)C(Cc2cccnc2)NC(=O)[C@@H]2CCCCN2C(=O)[C@H]2CCCCN2C1=O (single isomer, unassigned) [Example 10 (isomer 2), Cyclo[D-Phe-L-Ile-D-Pip-L-Pip-D,L-3-PyrAla-L-Pro]] | 1000 | > 10000 | 10000 | 
6 | CC[C@H](C)[C@@H]1NC(=O)[C@@H](C)NC(=O)[C@@H]2CCCN2C(=O)[C@@H](Cc2ccccc2)NC(=O)[C@@H]2CCCCN2C(=O)[C@H]2CCCCN2C1=O [Example 2, Cylco[D-alanyl-L-isoleucyl-D-pipecolyl-L-pipecolyl-D-phenylalanyl-L-prolyl]] (cyclo(I[dPip][Pip][dF]P[dA])) | > 10000 | > 10000 | > 10000 | 
7 | CC[C@H](C)[C@@H]1NC(=O)[C@@H](Cc2ccccc2)NC(=O)[C@@H]2CCCN2C(=O)[C@@H](Cc2cnc[nH]2)NC(=O)[C@@H]2CCCCN2C(=O)[C@H]2CCCCN2C1=O [Example 3] (cyclo(I[dPip][Pip][dH]P[dF])) | 88 |  | 19000 | IC50 (AVP-V1 sites; [4]): 7300 nM
8 | CC[C@H](C)[C@@H]1NC(=O)[C@@H](Cc2c[nH]cn2)NC(=O)[C@@H]2CCCN2C(=O)[C@@H](Cc2ccccc2)N(C)C(=O)[C@@H]2CCCCN2C(=O)[C@H]2CCCCN2C1=O [Example 4, Cyclo[D-histidyl-L-isoleucyl-D-pipecolyl-L-pipecolyl-D-(N^α -methyl)-phenylalanyl-L-prolyl]] (cyclo(I[dPip][Pip][dNMeF]P[dH])) | > 10000 | > 10000 | > 10000 | 
9 | CC[C@H](C)[C@@H]1NC(=O)[C@@H](Cc2ccccc2)NC(=O)[C@@H]2CCCN2C(=O)[C@@H](C)N(C)C(=O)[C@@H]2CCCCN2C(=O)[C@H]2CCCCN2C1=O [Example 5, Cyclo[D-phenyalanyl-L-isoleucyl-D-pipecolyl-L-pipecolyl-D-(N^α methyl)alanyl-L-prolyl]] (cyclo(I[dPip][Pip][dNMeA]P[dF])) |  | > 10000 | > 10000 | IC50 (uterine OT receptors; Receptor Binding Results IC50 (nM) [^3 H]OT): 930 nM
10 | CC[C@H](C)[C@@H]1NC(=O)[C@@H](Cc2ccccc2)NC(=O)[C@@H]2CCCN2C(=O)[C@@H](Cc2ccccc2)N(C)C(=O)[C@@H](C)N(C)C(=O)[C@H]2CCCCN2C1=O [Example 6, Cyclo[D-phenyalanyl-L-isoleucyl-D-pipecolyl-L-(N^α -methyl)alanyl-D-(N^α Methyl)phenylanyl-L-prolyl]] (cyclo([dF]I[dPip][dNMeA][dNMeF]P)) | 1800 | > 10000 | > 10000 | 
11 | CC[C@H](C)[C@@H]1NC(=O)[C@@H](Cc2cccc3ccccc23)NC(=O)[C@@H]2CCCN2C(=O)[C@@H](Cc2cnc[nH]2)NC(=O)[C@@H]2CCCCN2C(=O)[C@H]2CCCCN2C1=O [Example 11, Cyclo[D-a-naphthalalanyl-L-isoleucyl-D-pipecolyl-L-pipecolyl-D-histidyl-L-prolyl]] (cyclo(I[dPip][Pip][dH]P[d1Nal])) |  | > 1000 |  | IC50 (AVP-V2 sites; Receptor Binding Results IC50 (nM) [^3 H]-AVP-V2): > 1000 nM
12 | CC[C@H](C)[C@@H]1NC(=O)[C@@H](Cc2ccccc2)NC(=O)[C@@H]2CCCN2C(=O)[C@@H](Cc2ccccc2)NC(=O)[C@@H]2CCCNN2C(=O)[C@H]2CCCNN2C1=O [Example 96, c-[L-prolyl-D-phenylalanyl-L-isoleucyl-D-piperazyl-L-piperazyl-D-phenylalanyl]] (cyclo(I[X6][X12][dF]P[dF])) | 245 |  |  | IC50 (AVP-V1 sites; [4]): 2900 nM
13 | CN1C(=O)[C@@H]2CCCCN2C(=O)[C@H]2CCCCN2C(=O)[C@H](Cc2ccccc2)NC(=O)[C@@H](Cc2c[nH]c3ccccc23)NC(=O)[C@@H]2CCCN2C(=O)[C@H]1Cc1ccccc1 [Example 134, c-[D-Tryptophanyl-L-phenylalanyl-D-pipecolyl-L-pipecolyl-D-(N-methyl)phenylalanyl-prolyl]] (cyclo(F[dPip][Pip][dNMeF]P[dW])) | 110 |  |  | IC50 (AVP-V2 sites; [5]): 8000 nM
14 | CC[C@H](C)[C@@H]1NC(=O)[C@@H](Cc2ccc3ccccc3c2)NC(=O)[C@@H]2CCCN2C(=O)[C@@H](Cc2ccccc2)N(C)C(=O)[C@H](CCCCN)NC(=O)[C@H]2CCCCN2C1=O [Example 140, C-[D-2-Napthylalanyl-L-isoleucyl-D-pipecolyl-L-lysyl-D-(N-methyl)phenylalanyl-L-prolyl]] (cyclo([d2Nal]I[dPip]K[dNMeF]P)) |  |  |  | inhibition at 1 µM (AVP-V2 sites; 0.5 h, @ 1,000 (nM), read-out: [^3 H]-AVP-V2: percent inhibition of radioligand at the given concentration): 84%
15 | CC[C@H](C)[C@@H]1NC(=O)C(Cc2cccc(O)c2)NC(=O)[C@@H]2CCCN2C(=O)[C@@H](Cc2ccccc2)N(C)C(=O)[C@H](CCCCNC(=O)OC(C)(C)C)NC(=O)[C@H]2CCCCN2C1=O (stereo partly drawn) [Example 143, C-[D,L-meta-Tyrosinyl-L-isoleucyl-D-pipecolyl-L-(N-t-butyloxycarbonyl)lysyl-D-(N-methyl)phenylalanyl-L-prolyl]] (cyclo(I[dPip]K(Boc)[dNMeF]P[ξmTyr])) |  |  |  | inhibition at 1 µM (uterine OT receptors; @ 1,000 (nM)): 68%
16 | CC[C@H](C)[C@@H]1NC(=O)[C@@H](Cc2ccc3ccccc3c2)NC(=O)[C@@H]2CCCN2C(=O)[C@@H](Cc2c[nH]cn2)NC(=O)[C@H]2CNCCN2C(=O)[C@H]2CCCCN2C1=O [Example 161, c-[D-2-Naphthylalanyl-L-isoleucyl-D-pipecolyl-D-piperazin-2-yl-D-histidyl-L-prolyl]] (cyclo(I[dPip][dPip(4-aza)][dH]P[d2Nal])) | 6.7 |  |  | 
17 | CC[C@H](C)[C@@H]1NC(=O)[C@@H](Cc2ccccc2)NC(=O)[C@@H]2CCCN2C(=O)[C@@H](Cc2ccccc2)NC(=O)[C@@H]2CN(C(=O)OCc3ccccc3)CCN2C(=O)[C@H]2CCCN2C1=O [Example 163, c-[D-Phenylalanyl-L-isoleucinyl-D-prolyl-L-piperazin-2-yl(4-Cbz)-D-phenylalanyl-L-prolyl]] (cyclo([dF]I[dP][X2][dF]P)) |  |  |  | inhibition at 1 µM (uterine OT receptors; @ 1,000 (nM)): 49%
18 | CC[C@H](C)[C@@H]1NC(=O)[C@@H](Cc2ccccc2)NC(=O)[C@@H]2CCCN2C(=O)[C@@H](Cc2cncn2C)NC(=O)[C@@H]2CNCCN2C(=O)[C@H]2CCCCN2C1=O [Example 178, c-[D-Phenylalany-L-isoleucinyl-D-pipecolyl-L-piperazin-2-yl-D-(N^immethyl)histidinyl-L-prolyl]] (cyclo(I[dPip][Pip(4-aza)][dHis(π-Me)]P[dF])) |  |  |  | inhibition at 1 µM (uterine OT receptors; @ 1,000 (nM)): 77%
19 | C-[D,L-3-(3-(7-Methyl)indolyl)alanyl-L-isoleucyl-D-pipecolyl-L-pipecolyl-D- histidyl-L-prolyl] [Example 155] |  |  |  | [^3 H]OT: percent inhibition of radioligand at the given concentration (uterine OT receptors; @ 100 (nM)): 48%; [^3 H]-AVP-V2: percent inhibition of radioligand at the given concentration (AVP-V2 sites; @ 1,000 (nM)): 30%
20 | c-[D,L-3-(3-(1-Methyl)indolyl)alanyl-L-isoleucyl-D-pipecolyl-L-pipecolyl-D- histidyl-L-prolyl] [Example 153] |  |  |  | [^3 H]OT: percent inhibition of radioligand at the given concentration (uterine OT receptors; @ 10 (nM)): 48%; [^3 H]-AVP-V2: percent inhibition of radioligand at the given concentration (AVP-V2 sites; @ 1,000 (nM)): 35%
21 | c-[D-Phenylalanyl-L-isoleucinyl-D-pipecolyl-D-piperazin-2-yl(4-Cbz)-L-(BOM)histidyl-L-prolyl] [Example 93] |  |  |  | [^3 H]OT: percent inhibition of radioligand at the given concentration (uterine OT receptors; @ 1,000 (nM)): 42%
